Test results published in patent US20110192396A1, “PHARMACEUTICAL COMPOSITION FOR PREVENTING OR TREATING CHRONIC OBSTRUCTIVE PULMONARY DISEASE” (DAEWOONG CO., LTD., priority 2008, published 2011).

Legend:
[1] = tested on: PPE-induced emphysema model; assay: PPE-induced rat emphysema model, histopathological examination of lung and trachea; assay type: in vivo, Sprague-Dawley rats
Experimental: 6-week old male Sprague-Dawley rats (Japan SLC, Inc) having an average weight ranging from 200 to 250 g were accommodated for 1 week to prepare 7-week old rats. The rats were raised in individual ventilated cage (IVC) racks (GR900 plus rat cage, Polysulfone, 355 W×405 I×230 H mm) at a constant temperature (22±3° C.) at a constant relative humidity (55±15%) using fluorescent lamps (lights are on 08:00 to 20:00) for 12 hours, and food and water were fed ad libitum (solid feed 5L79, Orient Co., Ltd.). 120 U/kg, 1 mL/kg of pig pancreas elastase (PPE, Merck 324682) was administered once by intratracheal instillation to rats anesthetized with isoflurane. 1 mL/kg of 0.9% saline was administered once by intratracheal instillation to rats in the group in which emphysema was not induced. In order to uniformly administer test article into lung cavity, the same amount of air as the administered substances was administered during the intratracheal instillation. […] After 7 weeks from the PPE administration, the rats were anesthetized with isoflurane, and the lung and the trachea were isolated and fixed using 10% neutral formalin. Then histopathological examination of the lung and the trachea were performed and microscopic images were obtained. The test results were represented as average ±standard deviation. In order to detect a test group statistically significant from a control group, the results were statistically tested using one way ANOVA, and significance was analyzed using a multiple comparison method. […] In addition, FIGS. 7 and 8 illustrated the results of the tissue pathological tests of tracheas and lungs with a table.

MLE-12 cells = assay: Protection of alveolar cells from elastase cell toxicity, neutral red uptake (NRU) assay; assay type: cell-based, murine; conditions: 100 μg/mL EGF; 2 U/mL elastase; elastase only = 100%, medium only = 0% cell toxicity
Experimental: MLE-12 cells were divided into a 96-well plate such that the number of MLE-12 cells per well was […]. The MLE-12 cells were incubated in 5% CO2 incubator at 37° C. for one day. […] A neutral red uptake (NRU) assay was performed using a neutral red that dyes only living cells to measure the degree of cell death. […] The cells were fixed using a fixing solution (1% formaldehyde, 1% CaCl2) for 1 minute, and the neutral red dye reagent was extracted using a chromogenic solution including 50% ethanol and 1% glacial acetic acid. Then, light absorbance was measured at a wavelength of 540 nm.

[2] = tested on: MUC5AC gene expression in NCI-H292 cells; assay: Suppression of MUC5AC mucus gene expression in PA-LPS/TGF-α-treated NCI-H292 cells (real time PCR); assay type: cell-based, human; conditions: 50 ng/mL EGF; NCI-H292 cells pre-treated with PA-LPS and TGF-α for 6 hours; vs control with PA-LPS and TGF-α only
Experimental: NCI-H292 cells (ATCC, CRL-1848) were divided into a 6-well plate such that the number of the NCI-H292 cells per well was 10^6. The NCI-H292 cells were incubated in a 5% CO2 incubator at 37° C. for one day. The NCI-H292 cells were incubated in a serum free medium for one day, and then treated with 100 mg/mL of Pseudomonas aeruginosa lipopolysaccharide (PA-LPS, Sigma L8643) and 10 ng/mL of a transforming growth factor-alpha (TGF-α R&D systems 239-a-100) at the same time for 6 hours to induce overexpression of MUC5AC mucus. The PA-LPS and TGF-α were removed, and epidermal growth factors (EGFs) having different concentrations were added to the NCI-H292 cells. […]
RNA was isolated using a kit manufactured by QIAGEN (RNeasy Plus Mini Kit, 74134) according to the manuals provided by the manufacturer in order to isolate entire RNA. Absorbance of the isolated RNA was measured using a spectrophotometer at a wavelength of 260 nm to quantitatively analyze RNA. […]
A SYBR green assay was performed by adding cDNA, a forward primer, and a reverse primer to 12.5 mL of a SYBR green PCR master mix (Applied Biosystems, 4309155) such that the total volume of the mixture was set to 25 mL. […] The determined concentrations of the primers for MUC5AC, ICAM-1, RPL1 were respectively 900 nM, and the concentration β-ACT thereof was 300 nM. […]

[3] = G3: 0.1 mg/kg EGF intratracheal instillation, once a week for 3 weeks, rats

In the case of “EGF: recombinant proteins having the same amino acid sequence as natural human epidermal growth factor (hEGF); 53 amino acids, SEQ ID NO: 1”, the “degree and number of enlargement and breakdown of alveoli compared with the control group of PPE-induced emphysema model” value ([1]; G3, group with emphysema treated with EGF) is reported as “reduced”, the “cases with mild breakdown of alveoli” value [1, 3] is reported as 3 cases and the “cases with mild enlargement of alveoli” value [1, 3] is reported as 3 cases. For the same substance, the “cases with moderate breakdown of alveoli” value [1, 3] was 1 case, the “cases with moderate enlargement of alveoli” value [1, 3] was 1 case and the “cases with very mild breakdown of alveoli” value [1, 3] was 1 case. The “cases with very mild enlargement of alveoli” value [1, 3] was 2 cases, the “cases with very mild histiocytosis” value [1, 3] was 1 case and the “reduction of cell toxicity” value (MLE-12 cells) was “about 15%”. The “reduction of expression of MUC5AC” value [2] was 65%.
